SMILES strings stand for the structures. Converted amounts (≈) assume the structure as drawn. Where two headings read alike, the source gives them in different places.

The term IC50 denotes the concentration that inhibits the measured activity by half. Broadly, the Kd is the constant that tells how readily two partners part at equilibrium.

Data set [1] deals with HR in human U-2 OS IndDR-GFP cells. Nature of the data set: Inducible I-SceI DR-GFP assay (IndDR-GFP), inhibition of HR. As to conditions: Homo sapiens, U2OS; U-2 OS IndDR-GFP cells; 24 h with compound; ± SD; read-out: IC50, efficiency of HR inhibition in IndDR-GFP assay. Type of data set: cell-based. The method, then:
Exponentially growing U-2 OS IndDR-GFP cells were seeded at a density of 2 × 10^5 cells/well into 6-well plates with DMEM media containing 80 µg/mL G418 and indicated concentrations of RAD51i(s). For I-SceI induced samples, the media were supplemented with 0.5 µM Shield1 (Clontech, Mountain View, CA, USA) with 100 nM triamcinolone acetonide (Sigma, St. Louis, MO, USA). After 24 h of incubation, the media were removed, cells were washed with the DMEM, and the incubation continued for 48 h in DMEM containing 100 units/mL penicillin, 100 µg/mL streptomycin, and 80 µg/mL G418. Then, cells were trypsinized, trypsin solution was neutralized with an equal volume of media, and 10% formaldehyde solution in PBS was added for fixation to reach a final concentration of formaldehyde of 3.3%. The yield of GFP-positive cells indicative of HR activity was measured by flow cytometry with the Guava easyCyte system, and the data were analyzed with the InCyte program (Millipore; Burlington, VT, USA).

For data set [2], the target named is T1, HsRAD51 (Homo sapiens, UniProt Q06609).
T1 sequence (Q06609 1-339): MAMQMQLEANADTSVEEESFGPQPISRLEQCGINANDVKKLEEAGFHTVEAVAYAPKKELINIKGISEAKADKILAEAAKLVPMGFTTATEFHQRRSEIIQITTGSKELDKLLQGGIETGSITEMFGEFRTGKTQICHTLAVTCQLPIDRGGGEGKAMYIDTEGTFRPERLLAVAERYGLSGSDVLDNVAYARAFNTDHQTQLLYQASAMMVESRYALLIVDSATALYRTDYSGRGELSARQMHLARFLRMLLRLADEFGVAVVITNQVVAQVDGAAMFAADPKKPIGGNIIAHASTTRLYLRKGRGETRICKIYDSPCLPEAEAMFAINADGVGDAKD
Nature of the data set: Surface plasmon resonance (SPR) binding to immobilized RAD51. The note with it: 25 °C, equilibrium analysis, ± SD, read-out: KD, equilibrium dissociation constant of direct binding to hRAD51. The method, then: The binding of RAD51i to RAD51 was examined using a ProteOn XPR36 SPR Protein Interaction Array System (Bio-Rad, Hercules, CA, USA) at 25 °C. ProteOn GLH sensor chips were preconditioned with two 10 s pulses of 50 mM NaOH, 100 mM HCl, and 0.5% SDS followed by the system equilibration with the running buffer (20 mM sodium phosphate, 150 mM NaCl, and 0.005% Tween 20, pH 7.4). The surface of a GLH sensorchip was subsequently activated with a 1:100 dilution of a 1:1 mixture of 0.2 M EDC and 0.05 M Sulfo-NHS. Purified HsRAD51 was diluted to 500 µg/mL in 10 mM sodium acetate, pH 5.5, and injected immediately after chip activation across the ligand flow channels at 30 µL/min for 5 min. Unreacted protein was washed out, and the excess of unreacted ester groups on the sensor surface was capped by an injection of 1 M ethanolamine-HCl, pH 8.0, at 5 µL/min for 5 min. A reference surface to correct for nonspecific binding was similarly created by immobilizing an IgG b12 anti-HIV-1 gp120 antibody (IgG b12 anti-HIV-1 gp120; was obtained through the NIH AIDS Reagent Program, Division of AIDS, NIAID, NIH: Anti-HIV-1 gp120 Monoclonal (IgG1 b12) from Drs. Dennis Burton and Carlos Barbas). Serial dilutions of the compounds were prepared in the running buffer supplemented with 8% DMSO and injected at a flow rate of 100 μL/min for a 1 min association phase, followed by a 5 min dissociation phase using the “one-shot kinetics” functionality of the ProteOn instrument. Data were analyzed with ProteOn Manager Software version 3.0 (Bio-Rad; Hercules, CA, USA). The responses from the reference flow cell were subtracted to account for the non-specific binding and injection artifacts. Experiments were repeated at least three times. The equilibrium dissociation constants (KD) for the interactions were calculated in ProteOn Manager Version 3.1.0.6 (Bio-Rad; Hercules, CA, USA) using the equilibrium analysis function.

Data set [3] can be described thus: Solubility in DMSO. Type of data set: physicochemical. The note with it: organic solvent or mixture; in 100% DMSO; read-out: Maximal soluble concentration.
Data set [4] relates to MDA-MB-231 cells. Nature of the data set: Cell viability assay (Guava ViaCount flow cytometry), MDA-MB-231. The data set is classed as cell-based, human. The note with it: Homo sapiens. The method, then:
(§1) For all cell viability experiments, except experiments involving MMS treatment, cells were seeded into the media containing indicated concentrations of tested compounds or corresponding amounts of DMSO in controls. The concentration of DMSO in media was 0.1%. MDA-MB-231 cells were seeded into 24-well plates at 3.5 × 10^4 cells/well for cells for a 4-day treatment or at 5000 cells/well for a 10-day treatment. MCF 10A cells were seeded into 24-well plates at 1.5 × 10^4 cells/well for a 4-day treatment or at 500 cells/well for a 10-day treatment. In the case of 10-day treatments, the media with compounds were renewed twice on the 4th and the 7th days of treatments. After completion of the treatments, cells were harvested, and their viability was determined by flow cytometry with Guava ViaCount reagent (Luminex; Austin, TX USA). Data were analyzed using the Guava ViaCount software (Millipore; Burlington, VT, USA). The IC50 values were calculated using the GraphPad Prism 5 software (San Diego, CA, USA).
On the technique in general: Flow cytometry measures light scatter and fluorescence of single cells or particles in a stream.

The subject of data set [5] is MCF 10A cells. Nature of the data set: Cell viability assay (Guava ViaCount flow cytometry), MCF 10A. Type of data set: cell-based, human. The note with it: 4-day treatment. The method, then:
as §1

Data set [6] relates to HR in U-2 OS DR-GFP cells. Nature of the data set: Canonical DR-GFP assay, inhibition of HR. The data set is classed as cell-based. The note with it: Homo sapiens, U2OS.
Data set [7] has as its target T1, HsRAD51. Further details: method as in PMID 22380680. The note with it: earlier work; cited from earlier work.
Data set [8] relates to RAD51 foci in U-2 OS IndDR-GFP cells. The arrangement: method as in PMID 24971740. As to conditions: earlier work; cited from earlier work.

Regarding `O=c1nc(/C=C/c2cccnc2)n(Cc2cccc(I)c2)c2ccccc12` [m-I-B02-iso], the IC50 in data set [1] is 0.86 ± 0.02 µM.

Regarding `O=c1nc(/C=C/c2cccnc2)n(Cc2cccc(Br)c2)c2ccccc12` [m-Br-B02-iso], the Kd in data set [2] was determined as 8.4 ± 1.8 µM. The IC50 in data set [1] stood at 0.9 ± 0.18 µM.

As to `O=c1nc(/C=C/c2cccnc2)n(Cc2ccc(Br)cc2)c2ccccc12` [p-Br-B02-iso], the solubility in data set [3] amounted to 500 µM (≈ 209 µg/mL). Besides, the IC50 in data set [1] amounted to 0.8 ± 0.1 µM.

As for `O=c1nc(/C=C/c2cccnc2)n(Cc2ccc(I)cc2)c2ccccc12` [p-I-B02-iso], the IC50 amounted to 1.1 µM in data set [4] (MDA-MB-231, 96 h, MDA-MB-231, 4-day treatment, read-out: IC50 of cell viability); 2.7 µM in data set [5] (Homo sapiens, 96 h, MCF 10A); 0.72 ± 0.07 µM in data set [1]. In data set [2], the Kd is 1.4 ± 0.6 µM. Also, the “Times lower sensitivity of MCF 10A compared with MDA-MB-231” value in data set [5] (ratio of IC50) was “approximately 3”.

With `O=c1nc(/C=C/c2cccnc2)n(Cc2ccccc2Cl)c2ccccc12` [o-Cl-B02-iso], the IC50 in data set [1] worked out at 5.56 ± 0.49 µM.

Regarding `O=c1nc(/C=C/c2cccnc2)n(Cc2ccccc2Br)c2ccccc12` [o-Br-B02-iso], in data set [1], the IC50 is 4.6 ± 1.28 µM.

As for `O=C(c1cc(Cc2n[nH]c(=O)c3ccccc23)ccc1F)N1CCN(C(=O)C2CC2)CC1` [olaparib, reference compound], the IC50 in data set [4] (MDA-MB-231, 240 h, MDA-MB-231, 10-day treatment, olaparib only (DMSO), read-out: IC50 of olaparib, cell viability) was 8.6 µM; in data set [4] (MDA-MB-231, 240 h, MDA-MB-231 transfected with antiRAD51 siRNA_A, 10 days olaparib, read-out: IC50 of olaparib, cell viability), 3.2 µM; in data set [4] (MDA-MB-231, 240 h, MDA-MB-231 transfected with scrambled siRNA, 10 days olaparib, read-out: IC50 of olaparib, cell viability), 6.3 µM.

As to `O=c1c2ccccc2nc(/C=C/c2cccnc2)n1Cc1ccccc1` [B02], the figures for the IC50 in data set [6] and in data set [1] were 17.9 ± 3.5 µM and 17.7 ± 3.89 µM, respectively. Moreover, the “Binding to RAD51 in vitro by SPR” value in data set [7] is reported as “binds to RAD51 directly in vitro”. Further, the “RAD51 foci formation induced by cisplatin” value in data set [8] is “disrupts RAD51 foci formation”.
